# Results published in patent publication US20030207843A1, “Treatment of drug-resistant human immunodeficiency virus infection” (priority 1999, published 2003).
# Read-outs that look alike come from different tables or passages of the source.
# What was measured:
# Type in all cases: cell-based
# HIV-1LAI Q161L/H208Y = experiment: p24 reduction assay in MT-2 cells, Q161L/H208Y; settings: Table 7; for EC50: Q161L/H208Y; for Fold-resistance: Q161L/H208Y relative to wild type virus
# Procedure: (§1) Cells. MT-2 cells (AIDS Research and Reference Reagent Program, National Institute of Allergy and Infectious Diseases, National Institutes of Health) were maintained in RPMI 1640 supplemented with 10% fetal bovine serum (FBS; JRH Biosciences, Lenexa, Kans.), 10 mM HEPES buffer, 50 IU/ml penicillin and 50 μg/ml streptomycin.
# (§2) Antiviral Susceptibility Assays. The antiviral activity of each compound was determined by inoculating MT-2 cells with HIV-1LAI at a multiplicity of infection (MOI) of 0.01 TCID50/cell, followed by incubation in the presence of three-fold serial drug dilutions (3 wells per dilution) (see Mellors, et. al., Antimicrob. Agents Chemother. 39:1087-1092). Five or seven days after infection, culture supernatants were harvested, lysed with 0.5% triton-X 100 and assayed for p24 antigen concentration using a commercial ELISA assay (DuPont, NEN Products, Wilmington, Del.). The antiviral activity of the compounds is expressed as the IC50, which is the concentration required to inhibit 50% of p24 antigen production. The fold-resistance of a test virus is calculated by dividing the IC50 of the test virus by the IC50 of the HIV-1LAI control virus.
# (§3) Generation of Mutant Recombinant HIV-1. HIV-1 containing the desired mutations were generated by oligonucleotide directed mutagenesis (Altered Sites II, Promega) as previously described (Mellors, et. al., Molecular Pharm. 41:446-451). After mutagenesis, mutant RT was subcloned into the pxxHIV-1LAI cloning vector using the silent XmaI and XbaI restriction sites located at the 5′ and 3′ ends of RT. Clones were DNA sequenced to verify the presence of the desired mutation(s) and electroporated into MT-2 cells as described above to generate infectious mutant recombinant HIV-1.
# (§4) Mutant RT was generated via oligonucleotide-directed mutagenesis and ligated into the pXXHIV-1LAI cloning vector. Cloning was facilitated by the presence of two silent restriction sites at the 5′ and 3′ ends (Xma1 and Xba1, respectively) of pXXHIV-1LAI RT. Infectious mutant recombinant HIV-1 was generated by electroporating MT-2 cells with mutated pXXHIV-1LAI clones. The presence of the desired mutations was verified by DNA sequencing.
# (§5) Invention compounds were also evaluated against a panel of HIV-1LAI derived recombinants resistant to PFA and the PFA invention compounds, as shown in Table 7.
# HIV-1LAI L74V = experiment: p24 reduction assay in MT-2 cells, L74V; settings: for EC50: L74V; for Fold-resistance: L74V relative to wild type virus
# Procedure: as §1, §2, §3, §4
# (§6) The multi-drug resistant HIV-1 strains, 11163p1 and 11588p1, are human clinical isolates having the RT mutations indicated. HIV-1 strains treated with the lipid analogs of the present invention include wild type, e.g., xxLAI, and the like, single mutation, e.g., xxLAI MI 84V (resistant to 3TC), xxLAI L74V (resistant to ddI and ddC), xxLAI K65R (resistant to ddI, ddC, DAPD, DXG, tenofovir, and adefovir), xxLAI T215Y (resistant to AZT), and the like, double mutations, e.g., xxLAI M41 L/T215Y (resistant to AZT), xxLAI MI 84V/T215Y (resistant to 3TC and AZT), and the like, and multiple mutations, e.g., xxLAI 4XAZT ((D67N, K70R, T215Y, K219Q) resistant to AZT)), xxLAI 4XAZT/M184V ((D67N, K70R, M 184V, T215Y, K219Q) resistant to AZT and 3TC), xxLAI M5456-12 (AZT+NNRTI resistant: D67N, K70R, K103N, T215Y), xxLAI G2-3g (AZT/3TC co-resistant: M41L, D67N, M184V, H208Y, L210W, R211K, L214F, T215Y, 1293V, E297A), 11163 (multinucleoside resistant virsus: M41L, A62V, V751, F77L, K103N, F116Y, Q151M, Y181C, M184V), 11588 (multinucleoside resistant virsus: A62V, K65R, K70R, V751, F77L, F116Y, Q151M, M184V, K219Q), and the like.
# HIV-1LAI 4XAZT/K103N = experiment: p24 reduction assay in MT-2 cells, 4XAZT/K103N; settings: for Fold-resistance: 4XAZT/K103N relative to wild type virus
# Procedure: as §1, §2, §3, §4, §6
# [1] = system: multidrug-resistant HIV-1 clinical isolate 11588p1; experiment: p24 reduction assay in MT-2 cells, 11588p1
# Procedure: as §1
# as §2, with “[…],” for “was determined by inoculating MT-2 cells with HIV-1LAI at a multiplicity of infection (MOI) of 0.01 TCID50/cell,”
# as §6
# HIV-1LAI 4XAZT/W88S = experiment: p24 reduction assay in MT-2 cells, 4XAZT/W88S; settings: Table 7; for EC50: 4XAZT/W88S; for Fold-resistance: 4XAZT/W88S relative to wild type virus
# Procedure: as §1, §2, §3, §4, §5
# HIV-1LAI K65R = experiment: p24 reduction assay in MT-2 cells, K65R; settings: for EC50: K65R; for Fold-resistance: K65R relative to wild type virus
# Procedure: as §1, §2, §3, §4, §6
# HIV-1LAI Q161L = experiment: p24 reduction assay in MT-2 cells, Q161L; settings: Table 7; for EC50: Q161L; for Fold-resistance: Q161L relative to wild type virus
# Procedure: as §1, §2, §3, §4, §5
# HIV-1LAI 4XAZT/M184V = experiment: p24 reduction assay in MT-2 cells, 4XAZT/M184V; settings: for Fold-resistance: 4XAZT/M184V relative to wild type virus
# Procedure: as §1, §2, §3, §4, §6
# [2] = Table 1, AZT/K103N, MOI 0.01, read-out: EC50
# [3] = Table 5, 4XAZT/K103N, mean ± SD, read-out: EC50
# [4] = Table 1, 4xAZT/M184V, MOI 0.01, read-out: EC50
# [5] = Table 5, 4XAZT/M184V, mean ± SD, read-out: EC50
# [6] = Human immunodeficiency virus 1, MT2
# [7] = Human immunodeficiency virus 1, MT2, Table 1, MOI 0.01
# [8] = Human immunodeficiency virus 1, MT2, Table 3, mean ± SD
SMILES,EC50 (HIV-1LAI Q161L/H208Y),Fold-resistance (HIV-1LAI Q161L/H208Y),"EC50 (HIV-1LAI L74V; Table 1, MOI 0.01)",Fold-resistance (HIV-1LAI L74V; Table 3),"EC50 (HIV-1LAI L74V; Table 3, mean ± SD)",EC50 (HIV-1LAI 4XAZT/K103N; [2]),Fold-resistance (HIV-1LAI 4XAZT/K103N; Table 5),EC50 (HIV-1LAI 4XAZT/K103N; [3]),"EC50 ([1]; Table 2, MOI 0.05)",EC50 (HIV-1LAI 4XAZT/W88S),Fold-resistance (HIV-1LAI 4XAZT/W88S),"EC50 (HIV-1LAI K65R; Table 1, MOI 0.01)",Fold-resistance (HIV-1LAI K65R; Table 3),"EC50 (HIV-1LAI K65R; Table 3, mean ± SD)",EC50 (HIV-1LAI Q161L),Fold-resistance (HIV-1LAI Q161L),EC50 (HIV-1LAI 4XAZT/M184V; [4]),Fold-resistance (HIV-1LAI 4XAZT/M184V; Table 5),EC50 (HIV-1LAI 4XAZT/M184V; [5]),other results
"CCCCCCCCCCCCCCCCCCOC[C@@H](O)COP(=O)(O)C(=O)O [B-PFA, 1-O-octadecyl-sn-glycero-3-PFA]",> 30 µM,(>17.2),4.25 µM,(2.5),4.45 ± 2.26 µM,2.72 µM,(2.2),3.87 ± 2.36 µM,9.31 µM,4.09 µM,1.84 (1.6),17.7 µM,(8.2),14.7 ± 6.61 µM,> 30 µM,(>17.2),2.29 µM,(1.3),2.29 ± 1.59 µM,–
"CCCCCCCCCCCCCCCCCCOC[C@H](COP(=O)(O)C(=O)O)OCC [EB-PFA, 1-O-octadecyl-2-O-ethyl-sn-glycero-3-PFA]",7.02 µM,–,1.34 µM,(1.9),1.21 ± 0.85 µM,0.8 µM,(1.4),0.88 ± 0.14 µM,0.73 µM,1.51 µM,0.21 (1.9),3.22 µM,(4.5),2.91 ± 1.3 µM,6.73 µM,0.04 (7.5),0.58 µM,(0.9),0.56 ± 0.08 µM,–
"CCCCCCCCCCCCCCCCCCOC[C@H](COP(=O)(O)C(=O)O)OC [MB-PFA, 1-O-octadecyl-2-O-methyl-sn-glycero-3-PFA]",12.8 µM,9.00 (17.7),0.52 µM,(1.8),0.88 ± 0.63 µM,–,(1.2),0.6 ± 0.38 µM,1.16 µM,1.54 µM,0.81 (1.8),1.24 µM,(3.3),1.66 ± 0.72 µM,8.78 µM,1.58 (11.4),0.48 µM,(1.2),0.59 ± 0.36 µM,–
"O=C(O)P(=O)(O)O [PFA, phosphonoformate, reference compound]",–,–,–,(1.9),–,–,(1.1),–,–,–,10.40 (1.0),–,(3.8),–,–,14.14 (8.8),–,(1.3),–,"EC50 (HIV-1LAI Q161L/H208Y; [6]): 126 µM; EC50 (HIV-1LAI L74V; [7]): 37.4 µM; EC50 (HIV-1LAI L74V; [8]): 32.7 ± 9 µM; EC50 (HIV-1LAI 4XAZT/K103N; Human immunodeficiency virus 1, MT2, Table 1, AZT/K103N, MOI 0.01): 18.6 µM; EC50 (HIV-1LAI 4XAZT/K103N; Human immunodeficiency virus 1, MT2, Table 5, 4XAZT/K103N, mean ± SD, read-out: EC50): 19.2 ± 8.85 µM; EC50 ([1]; Human immunodeficiency virus 1, MT2, Table 2, MOI 0.05): 23.5 µM; EC50 (HIV-1LAI 4XAZT/W88S; [6]): 18.4 µM; EC50 (HIV-1LAI K65R; [7]): 57.3 µM; EC50 (HIV-1LAI K65R; [8]): 67 ± 22.8 µM; EC50 (HIV-1LAI Q161L; [6]): 115 µM; EC50 (HIV-1LAI 4XAZT/M184V; Human immunodeficiency virus 1, MT2, Table 1, 4xAZT/M184V, MOI 0.01): 15.7 µM; EC50 (HIV-1LAI 4XAZT/M184V; Human immunodeficiency virus 1, MT2, Table 5, 4XAZT/M184V, mean ± SD, read-out: EC50): 22.7 ± 15.8 µM"
